Columns and labels:
AKR1C3 [1] = molecular target: T1, AKR1C3 (Homo sapiens, UniProt P42330); test: idarubicinol formation (UPLC-MS/MS) in AKR1C3-transfected HEK293 cells versus empty-vector cells, […] idarubicin; assay type: cell-based
T1 construct: AKR1C3 human ORF-Clone transiently over-expressed in HEK293 cells
T1 sequence (P42330 1-323): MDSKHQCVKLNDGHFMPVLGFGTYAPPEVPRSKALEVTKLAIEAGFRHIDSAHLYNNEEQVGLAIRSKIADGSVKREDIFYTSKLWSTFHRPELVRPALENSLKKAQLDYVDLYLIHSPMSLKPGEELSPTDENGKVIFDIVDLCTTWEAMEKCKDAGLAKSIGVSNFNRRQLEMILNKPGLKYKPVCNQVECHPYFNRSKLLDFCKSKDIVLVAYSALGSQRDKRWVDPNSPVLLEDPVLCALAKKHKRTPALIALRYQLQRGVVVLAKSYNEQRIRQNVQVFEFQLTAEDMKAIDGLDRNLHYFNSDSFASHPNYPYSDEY

AKR1C3 [2] = molecular target: T1, AKR1C3; test: inhibition of idarubicinol formation (UPLC-MS/MS) in HEK293 cells over-expressing AKR1C3, compared with empty-vector control; assay type: cell-based

IC50 (AKR1C3 [2]) [µM] | Structure (SMILES) | idarubicinol formation (UPLC-MS/MS) in AKR1C3-transfected HEK293 cells versus em (AKR1C3 [1])
 | CC(=O)[C@]1(O)Cc2c(O)c3c(c(O)c2[C@@H](O[C@H]2C[C@H](N)[C@H](O)[C@H](C)O2)C1)C(=O)c1ccccc1C3=O [idarubicin] | the over-expression lead to a significantly higher idarubicinol formation in HEK293 cells
0.5 ± 0.1 | O=C1C[C@@]2(C(=O)N1)C(=O)N(Cc1ccc(Br)cc1F)C(=O)c1cccn12 [ranirestat] | 

From publication PMC10861747, “In vitro evaluation of the reductive carbonyl idarubicin metabolism to evaluate inhibitors of the formation of cardiotoxic idarubicinol via carbonyl and aldo–keto reductases” (Archives of Toxicology, 2024)
